Results published in patent publication US6399541B1, “Substituted 2,4-diamino-1,3,5-triazines as herbicides” (Bayer Aktiengesellschaft, priority 1997, dated 2002).

Columns and labels:
Ipomoea [1] = assay: Post-emergence test/greenhouse; assay type: in vivo; conditions: 125 g of ai./ha, after three weeks
Method: (§1) Solvent: 5 parts by weight of acetone
(§2) Emulsifier: 1 part by weight of alkylaryl polyglycol ether
(§3) To produce a suitable preparation of active compound, 1 part by weight of active compound is mixed with the stated amount of solvent, the stated amount of emulsifier is added and the concentrate is diluted with water to the desired concentration.
(§4) Test plants which have a height of 5 to 15 cm are sprayed with the preparation of active compound in such a way that the particular amounts of active compound desired are applied per unit area. The concentration of the spray liquor is chosen such that the particular amounts of active compound desired are applied in 1000 l of water/ha.
(§5) After three weeks, the degree of damage to the plants is assessed in % damage in comparison to the development of the untreated control.
(§6) 0%=no effect (as untreated control)

Matricaria = assay: Post-emergence test/greenhouse; assay type: in vivo; conditions: 125 g of ai./ha, after three weeks
Method: as §1, §2, §3, §4, §5, §6

Veronica = assay: Post-emergence test/greenhouse; assay type: in vivo; conditions: after three weeks
Method: as §1, §2, §3, §4, §5, §6

Setaria [2] = assay: Post-emergence test/greenhouse; assay type: in vivo; conditions: 125 g of ai./ha, after three weeks
Method: as §1, §2, §3, §4, §5, §6

Xanthium = assay: Post-emergence test/greenhouse; assay type: in vivo; conditions: 125 g of ai./ha, after three weeks
Method: as §1, §2, §3, §4, §5, §6

Cassia [3] = assay: Post-emergence test/greenhouse; assay type: in vivo; conditions: after three weeks
Method: as §1, §2, §3, §4, §5, §6

Echinochloa = assay: Post-emergence test/greenhouse; assay type: in vivo; conditions: 125 g of ai./ha, after three weeks
Method: as §1, §2, §3, §4, §5, §6

weeds [4] = assay: Pre-emergence test; assay type: in vivo; conditions: cf. Table A
Method: as §1, §2, §3
(§7) Seeds of the test plants are sown in normal soil. After about 24 hours, the soil is sprayed with the preparation of active compound in such a way that the particular amounts of active compound desired are employed per unit area. The concentration of the spray liquor is chosen such that the particular amounts of active compound desired are applied in 1000 l of water/ha.
as §5
(§8) 0%=no effect (as untreated control) 100%=total destruction

Alopecurus = assay: Pre-emergence test/greenhouse; assay type: in vivo; conditions: after three weeks
Method: as §1, §2, §3, §7, §5, §8

Setaria [5] = assay: Pre-emergence test/greenhouse; assay type: in vivo; conditions: 1000 g of ai./ha, after three weeks
Method: as §1, §2, §3, §7, §5, §8

Amaranthus = assay: Pre-emergence test/greenhouse; assay type: in vivo; conditions: after three weeks
Method: as §1, §2, §3, §7, §5, §8

Abutilon = assay: Pre-emergence test/greenhouse; assay type: in vivo; conditions: after three weeks
Method: as §1, §2, §3, §7, §5, §8

weeds [6] = assay: Post-emergence test; assay type: in vivo; conditions: cf. Table B
Method: as §1, §2, §3, §4, §5, §6

Solanum = assay: Post-emergence test/greenhouse; assay type: in vivo; conditions: 60 g of ai./ha, after three weeks
Method: as §1, §2, §3, §4, §5, §6

Wheat = assay: Post-emergence test/greenhouse; assay type: in vivo; conditions: 60 g of ai./ha, after three weeks
Method: as §1, §2, §3, §4, §5, §6

Ipomoea [7] = assay: Pre-emergence test/greenhouse; assay type: in vivo; conditions: 250 g of ai./ha, after three weeks
Method: as §1, §2, §3, §7, §5, §8

Reapseed = assay: Pre-emergence test/greenhouse; assay type: in vivo; conditions: 250 g of ai./ha, after three weeks
Method: as §1, §2, §3, §7, §5, §8

Sorghum = assay: Pre-emergence test/greenhouse; assay type: in vivo; conditions: 250 g of ai./ha, after three weeks
Method: as §1, §2, §3, §7, §5, §8

Lolium = assay: Pre-emergence test/greenhouse; assay type: in vivo; conditions: 250 g of ai./ha, after three weeks
Method: as §1, §2, §3, §7, §5, §8

Cassia [8] = assay: Pre-emergence test/greenhouse; assay type: in vivo; conditions: 250 g of ai./ha, after three weeks
Method: as §1, §2, §3, §7, §5, §8

With `CCC(Nc1nc(NC(C)=O)nc(C(C)F)n1)c1ccccc1` (racemic) [Example 2, 2-acetylamino-4-(1-fluoro-ethyl)-6-(1-phenyl-propylamino)-1,3,5-triazine] the “degree of damage, Ipomoea” value (Ipomoea [1]) was 100%, the “degree of damage, Matricaria” value (Matricaria) was 95% and the “degree of damage, Veronica” value (Veronica; 125 g of ai./ha) was 95%. The “degree of damage, Setaria” value (Setaria [2]) was 80%, the “degree of damage, Xanthium” value (Xanthium) was 80% and the “degree of damage, Cassia” value (Cassia [3]; 125 g of ai./ha) was 100%. The “degree of damage, Echinochloa” value (Echinochloa) was 80%, the “action against weeds compared with known compound (A)” value (weeds [4]) was “considerably strong action against weeds than the known compound (A)” and the “degree of damage, Alopecurus” value (Alopecurus; 1000 g of ai./ha) was 90%. For the same compound, the “degree of damage, Setaria” value (Setaria [5]) was 70%, the “degree of damage, Amaranthus” value (Amaranthus; 1000 g of ai./ha) was 100% and the “degree of damage, Abutilon” value (Abutilon; 1000 g of ai./ha) was 100%. The “activity against weeds compared with known compound (A)” value (weeds [6]) was “considerably stronger activity against weeds than the known compound (A)” and the melting point was 118 °C.

In the case of `CC(Cl)c1nc(N)nc(NC(C)c2ccccc2)n1` (racemic) [Example 18], the “degree of damage, Veronica” value (Veronica; 60 g of ai./ha) is reported as 95%, the “degree of damage, Cassia” value (Cassia [3]; 60 g of ai./ha) is reported as 70% and the “degree of damage, Solanum” value (Solanum) is reported as 90%. The “degree of damage, Wheat” value (Wheat) was 0%, the “action against weeds compared with known compound (A)” value (weeds [4]) was “considerably strong action against weeds than the known compound (A)” and the “degree of damage, Ipomoea” value (Ipomoea [7]) was 95%. The “degree of damage, Reapseed” value (Reapseed) was 0%, the “degree of damage, Amaranthus” value (Amaranthus; 250 g of ai./ha) was 100% and the “activity against weeds compared with known compound (A)” value (weeds [6]) was “considerably stronger activity against weeds than the known compound (A)”.

With `CC(F)c1nc(N)nc(NC(C)c2ccccc2)n1` (racemic) [Example 16] the “action against weeds compared with known compound (A)” value (weeds [4]) was “considerably strong action against weeds than the known compound (A)”, the “degree of damage, Ipomoea” value (Ipomoea [7]) was 100% and the “degree of damage, Alopecurus” value (Alopecurus; 250 g of ai./ha) was 100%. For the same compound, the “degree of damage, Sorghum” value (Sorghum) was 95%, the “degree of damage, Amaranthus” value (Amaranthus; 250 g of ai./ha) was 100% and the “degree of damage, Lolium” value (Lolium) was 100%. The “degree of damage, Abutilon” value (Abutilon; 250 g of ai./ha) was 80% and the “degree of damage, Cassia” value (Cassia [8]) was 100%.
